Laboratory results as given in patent publication US9394549B2, “Method for producing useful chemical substance from terephthalic acid potassium salt” (GENARIS, INC., priority 2012, dated 2016).

Assays:
[1] = system: protocatechuic acid-producing Escherichia coli strain M7032 (pUXPEaLT_tphA2A3BA1_tpaK); assay: Production of protocatechuic acid from terephthalic acid salt in jar fermentor culture; type: cell-based; details: for Ratio of the capacity in production (protocatechuic acid): disodium terephthalate as 100%
Experimental: A protocatechuic acid-producing plasmid pUXPEaLT_tphA2A3BA1_tpaK constructed in Reference Example 2 was introduced into Escherichia coli M7032 strain by a transformation method to obtain a protocatechuic acid-producing Escherichia coli strain M7032 (pUXPEaLT_tphA2A3BA1_tpaK).
Subsequently, in the same manner as described in Example 2, the preculture of the present protocatechuic acid-producing bacterium was prepared and then merely 2% of such a preculture was inoculated in a main culture medium to carry out main culture. When the bacterial cell turbidity reached about 7 at an absorbance of 600 nm, an inducer m-toluic acid was added such that the final concentration thereof came to 1 mM to express terephthalate 1,2-dioxygenase protein, terephthalate 1,2-dioxygenase reductase protein, terephthalate dihydrodiol dehydrogenase protein, and terephthalic acid transporter protein. The glucose concentration was measured with time. When the glucose concentration reached 0, the glucose and substrate mixed solution was administered.
(§1) Sampling was carried out 48 hours after the start of the main culture. Each of the samples was subjected to analysis by an LC-TOF type mass spectrometer (Waters Corporation, LCT Premier XE). Identification of terephthalic acid and protocatechuic acid was carried out with a combination of retention time of high performance liquid chromatography and an accurate mass value from the mass spectrometer, comparing to a standard sample of terephthalic acid and protocatechuic acid.
(§2) Using the protocatechuic acid-producing Escherichia coli strain M7032 (pUXPEaLT_tphA2A3BA1_tpaK) created in Reference Example 2, in the same manner as described in Example 2, the preculture of the present protocatechuic acid-producing bacteria was prepared and then merely 2% of such a preculture was inoculated in a main culture medium to carry out main culture. When the bacterial cell turbidity reached about 7 at an absorbance of 600 nm, an inducer m-toluic acid was added such that the final concentration thereof came to 1 mM to express terephthalate 1,2-dioxygenase protein, terephthalate 1,2-dioxygenase reductase protein, terephthalate dihydrodiol dehydrogenase protein, and terephthalic acid transporter protein. The glucose concentration was measured with time. When the glucose concentration reached 0, the terephthalic acid salt derived from PET, which was prepared in Example 6, was dissolved such that the concentration thereof was 0.6M, mixed with glucose, and administered to a culture device.
as §1, with “52” for “48”
as §2, with “acid-producing bacterium” for “acid-producing bacteria”, “time. […]” for “time. When the glucose concentration reached 0, the terephthalic acid salt derived from PET, which was prepared in Example 6, was dissolved such that the concentration thereof was 0.6M, mixed with glucose, and administered to a culture device.”

[2] = Solubility of terephthalic acid salts in 1-butanol; type: physicochemical; details: organic solvent or mixture, same manner as Example 1
Source text: As just seen above, it was found out that, unlike the dissolution in ethylene glycol, the dissolution in 1-butanol was very poor.

[3] = Solubility of terephthalic acid salts in ethylene glycol; type: physicochemical; details: for concentration of terephthalate in saturated ethylene glycol solvent: heated at 100° C. for 60 minutes, cooled to 30° C. or less, filtered; for solubility: organic solvent or mixture, same method as Example 1
Experimental: 4.15 g of terephthalic acid (0.025 mol) was placed in a 200 mL glass beaker and then 0.050 mol of potassium hydroxide (in a form of granule), 0.050 mol of sodium hydroxide (in a form of granule), or 0.025 mol of potassium hydroxide, and 0.025 mol of sodium hydroxide were placed thereto. Ethylene glycol was filled to obtain a volume of about 100 mL. The resulting mixture was covered with aluminum foil as a lid, heated at 100° C. for 60 minutes while stirred by a hot stirrer, and allowed to cool to 30° C. or less. These solutions were filtered with a filter paper (Grade 540 manufactured by Whatman) to obtain an ethylene glycol solvent saturated with the terephthalate.
The concentration of each of the terephthalates contained in such a solvent was 0.23 M in a dipotassium terephthalate saturated solution, 0.11 M in a disodium terephthalate saturated solution, and 0.20 M in a 1-potassium 4-sodium terephthalate saturated solution.

[4] = 0.6 M salt solution as raw material, 48 hours after the start of the main culture
[5] = salt obtained by depolymerization of PBT (Example 8), 0.6M, 48 hours
[6] = salt obtained by depolymerization of PET (Example 6), 0.6M, 52 hours

SMILES	Protocatechuic acid [1, 4]	Ratio of the capacity in production (protocatechuic acid) ([1]; 48 hours)	solubility [2]	concentration of terephthalate in saturated ethylene glycol solvent [3]	solubility [3]	Ratio of the capacity in production (protocatechuic acid) ([1]; salt from PBT, 48 hours)	Ratio of the capacity in production (protocatechuic acid) ([1]; salt from PET, 52 hours)	Protocatechuic acid [1, 5]	Protocatechuic acid [1, 6]	solubility in ethylene glycol [3]
N.O=C([O-])c1ccc(C(=O)O)cc1.[K+] [1-potassium 4-ammonium terephthalate]	7.1 g/L	142%								
O=C([O-])c1ccc(C(=O)[O-])cc1.[Na+].[Na+] [Disodium terephthalate, disodium terephthalate, reference compound]	5.0 g/L	100%	1.9 mM	0.11 M	109 mM	100%	100%	10.2 g/L	10.2 g/L	
O=C([O-])c1ccc(C(=O)[O-])cc1.[K+].[K+] [Dipotassium terephthalate, dipotassium terephthalate]	8.3 g/L	166%	0.2 mM	0.23 M	231 mM	114%	113%	11.6 g/L	11.5 g/L	
O=C([O-])c1ccc(C(=O)[O-])cc1.[K+].[Na+] [1-potassium 4-sodium terephthalate]	7.7 g/L	154%				108%	108%	11.0 g/L	11.1 g/L	205 mM
